5 molecules from US20050085426A1, “Acid-sensitive compounds, preparation and use thereof” (priority 2000, published 2005) can be followed below.

One data set concerns DNA. Nature of the data set: Ethidium bromide fluorescence test of DNA compaction and release at pH 5. Format: physicochemical. The following applies: for variation in fluorescence over time (DNA not completely compacted): 0.4 nmol lipid/μg of DNA. An excerpt:
This can be easily shown by a fluorescence test with ethidium bromide (EtBr): the absence of fluorescence reflects the absence of free DNA, which means that the DNA is compacted.
In the text which follows, the two forms Syn and Trans of the acid-sensitive compound A as prepared in example 3 were used and the non-acid-sensitive analog described in the publication WO 97/18185, and which has the formula: H2N—(CH2)3—NH—(CH2)4—NH—(CH2)3—NH—CH2—CO-Gly-N[(CH2)17—CH3]2 was used as control. This non-acid-sensitive analog is called in the text which follows “control cationic lipid”.
The DNA is brought into contact with increasing quantities of control cationic lipid or of acid-sensitive compound A Syn or Trans, by mixing an equal volume of lipid solutions of different titers with the DNA solutions. Samples of 800 μl of DNA complexes having a concentration of 10 μg/ml are thus prepared in a sodium chloride solution at 150 mM with increasing quantities of control cationic lipid or of acid-sensitive compound A Syn or Trans.
At time t=0, 200 μl of buffer having a concentration of 0.1 mol/l at pH 5 are added to these samples and the samples are stored in an oven at 37° C. The fluorescence with ethidium bromide (EtBr) is measured over time (measurement at 20° C.) using a FluoroMax-2 (Jobin Yvon-Spex), with excitation and emission wavelengths of 260 nm and 590 nm respectively. The slit widths for excitation and for emission are set at 5 nm. The fluorescence value is recorded after addition of 3 μl of ethidium bromide at 1 g/l per ml of DNA/cationic lipid or DNA/acid-sensitive compound solution (at 0.01 mg of DNA/ml).

For the next data set, the system named is HeLa cells. Nature of the data set: In vitro transfection of HeLa cells, luciferase activity. Conditions: for transfection activity: 1.0 to 10.0 nmol of lipid/μg of DNA; for effect of the presence of serum on transfection: with serum (10% FCS). Format: cell-based, human. How it is done:
This study was carried out at 4 different charge ratios: 1.0 or 4.0 or 6.0 or 10.0 nmol of lipid/μg of DNA. Each of these conditions was tested with and without fetal calf serum (“+ or − Serum”)
Culture of the cells: HeLa cells (American type Culture Collection (ATCC) Rockville, Md., USA) derived from a human cervical epithelium carcinoma, are cultured in the presence of a medium of the MEM (“minimum essential medium”) type with addition of 2 mM L-glutamine, 50 units/ml of penicillin, and 50 units/ml of streptomycin. The medium and the additives are obtained from Gibco/BRL life Technologies (Gaithersburg, Md., USA). The cells are cultured in flasks at 37° C. and at 5% carbon dioxide in an incubator.
Transfection: a day before the transfection, the HeLa cells are transferred into 24-well plates with a cell number of 30,000 to 50,000 per well. These dilutions represent approximately 80% confluence after 24 hours.
For the transfection, the cells are washed twice and incubated at 37° C. with 500 μl of medium with serum (10% FCS v/v) or without serum.
50 μl of complexes containing 0.5 μg of plasmid DNA are added to each well (the complexes are prepared at least 30 minutes before the addition to the well). After two hours at 37° C., the plates without serum are supplemented with 10% (v/v) of FCS (“Fetal Calf Serum”).
All the plates are placed for 36 hours at 37° C. and at 5% carbon dioxide.
Determination of the luciferase activity: Briefly, the transfected cells are washed twice with 500 μl of PBS (phosphate buffer) and then lysed with 250 μl of reagent (Promega cell culture lysis reagent, from the Luciferase Assay System kit).
An aliquot of 10 μl of supernatant of the lysate centrifuged (12,000×g) for 5 minutes at 4° C. is measured with the Wallac Victor2 luminometer (1420 Multilabel couter).
The luciferase activity is assayed by the emission of light in the presence of luciferin, of coenzyme A and of ATP for 10 seconds and expressed relative to 2000 treated cells. The luciferase activity is thus expressed as Relative Light Unit (“RLU”: “Relative light unit”) and normalized with the concentration of proteins in the sample obtained using a Pierce BCA kit (Rockford, Ill., USA).

Data set [1] relates to DNA/control cationic lipid nucleolipid complexes. Nature of the data set: Size of nucleolipid particles as a function of pH and time (stability of acid-sensitive compounds). Format: physicochemical. Conditions: for sensitivity at acidic pH values: pH 4, pH 5, pH 6; for stability at physiological pH: pH 7.4. As to the method: To this effect, the variation of the size of nucleolipid complexes (identical to those used in examples 9 and 10) is measured as a function of the pH and time, for various acid-sensitive pegoylated lipids, which makes it possible to cover different ranges of sensitivity.

Data set [2] has as its system control cationic lipid/DNA particles. Nature of the data set: Colloidal stabilization of DNA/control cationic lipid particles, hydrodynamic diameter. Format: physicochemical. Conditions: as nonionic surfactant for nucleolipid particles. An excerpt:
In the present example, the cationic lipid used is that already used in examples 7 and 8 and described in the publication WO 97/18185 under the formula: H2N—(CH2)3—NH—(CH2)4—NH—(CH2)3—NH—CH2—CO-Gly-N[(CH2)17—CH3]2 (control cationic lipid).
Compounds C and D prepared in example 5 are used as acid-sensitive pegoylated lipids. As controls, there are used BRIJ 700 (SIGMA) and the pegoylated lipid of formula: [drawing 27] which are non-acid-sensitive analogs of compounds C and D, respectively, and which are known as nonionic surfactants (see for example the publication WO 98/34648). The two controls are used at 10 g/l in water.
(§1) All these samples have a control cationic lipid/DNA ratio of 1.5 (in nmol of lipid per μg of DNA) and contain increasing quantities of pegoylated lipid (expressed as polymer/DNA weight/weight ratio).
The measurement of the hydrodynamic diameter is made with a Coulter N4Plus apparatus using plastic cuvettes (four transparent sides) filled with 800 μl of the different solutions containing 0.01 mg of DNA/ml, the measurement being carried out at 90° in unimodal mode.

The test system of data set [3] is Balb/C mice carrying subcutaneous M109 tumors. Nature of the data set: In vivo gene transfer of DNA/cationic lipid/DOPE complexes, CAT assay. As to the method:
The cationic lipid of formula: [drawing 28] and the neutral lipid DOPE (obtained from Avanti Polar Lipids, Birmingham, Ala.) where it is dissolved in chloroform and then mixed in equimolar quantities.
Appropriate quantities of compound D were dissolved in chloroform and added to the mixture. The quantities of compound D used are given in mol % of the total quantity of lipid.
The organic solvent is then evaporated under an argon stream so that a thin lipid film forms at the bottom of the tube. This film is dried under vacuum for at least 1 hour and then rehydrated with a 20 mM HEPES buffer at pH 7.4 and 5% dextrose, at 4° C. for 2 hours. The lipid suspension thus obtained is heated at 50° C. for 30 minutes, and then sonicated for 5 minutes so as to form a homogeneous suspension of liposomes of about 100 nm.
The DNA used is plasmid DNA containing the CAT gene under the control of a CMV promoter.
Equivalent volumes of liposome suspension (in appropriate concentration) are rapidly added to a DNA solution while mixing rapidly and vigorously. Overall, 1 μg of DNA forms a complex with 5 nmol of cationic lipid. The complexes formed have a diameter of approximately 100 to 240 nm.
About 6 week old female Balb/C mice are used in all the experiments. Each mouse receives a subcutaneous injection with 10^6 M109 cells in the right flank. When the tumours reach a size of about 300 mm^3, the mice receive 200 μl of DNA/lipid complexes containing 50 μg of DNA, by intravenous injection. The tissues are removed 24 hours after injection and stored at −70° C. until used.
The tissues are homogenized using a “FastPrep Cell Disrupter FP120” apparatus (Bio 101/Savant). The samples are then centrifuged at 1 000 revolutions/minute for 5 minutes. The quantity of CAT transgene expressed is determined using a standard CAT ELISA procedure (Roche, Ind.).

Data set [4] concerns control cationic lipid/DNA nucleolipid particles. Description: Size of nucleolipid particles as a function of time at pH 5. Format: physicochemical. The following applies: for aggregation of the particles after 4 hours: pH 5, 37° C. How it is done: The acid-sensitive pegoylated lipid used in this example is the compound D prepared in example 5, as well as its non-acid-sensitive analog called “Analog D” in the preceding example and in the text which follows.
as §1
The size of the particles is measured as a function of time.

As to `CCCCCCCCCCCCCCCCCCN(CCCCCCCCCCCCCCCCCC)C(=O)CCCOC1OCC(CNC(=O)CNCCCNCCCCNCCCN)O1` (stereo not drawn) [Compound A Syn, 4-{4-[(2-{3-[4-(3-amino-propylamino)butylamino]propyl-amino}acetylamino)methyl]-[1,3]dioxolan-2-yloxy}-N,N-dioctadecylbutyramide tetraacetate], in the data set with DNA (pH 5, 37° C.), the “variation in fluorescence over time (DNA not completely compacted)” value is listed as “no significant variation in fluorescence”. Also, the “release of the DNA over time (increase in fluorescence)” value in the data set on DNA (pH 5, 37° C., 1.7 and 6.0 nmol lipid/μg of DNA) was “release the DNA over time”. In the data set on DNA (pH 5 and 37° C.), the “time of release of DNA after the addition of acid” value is on record as “a few hours after the addition of acid”. Also, in the data set with HeLa cells, the transfection activity entry is “high transfection activity” and the “effect of the presence of serum on transfection” value is “inhibition of transfection”.
For `CCCCCCCCCCCCCCCCCCN(CCCCCCCCCCCCCCCCCC)C(=O)CNC(=O)CNCCCNCCCCNCCCN` [control cationic lipid, H2N—(CH2)3—NH—(CH2)4—NH—(CH2)3—NH—CH2—CO-Gly-N[(CH2)17—CH3]2, reference compound], the “variation in fluorescence over time (DNA not completely compacted)” value with DNA (pH 5, 37° C.) is reported as “no significant variation in fluorescence”. In the data set on HeLa cells, the transfection activity result is “high transfection activity” and the “effect of the presence of serum on transfection” value is recorded as “inhibition of transfection”.
In the case of “methoxy-(polyethylene glycol 5000)-(N-(2-octadecyloxy-[1,3]dioxolan-4-ylmethyl)amide [Compound C]”, in data set [1], the “sensitivity at acidic pH values” is “high sensitivity at acidic pH values” and the “stability at physiological pH” value is recorded as “relatively stable at physiological pH”. In addition, the “duration of stabilization of the nucleolipid particles” value in data set [1] (pH 6, 37° C.) was “at least 4 hours”. Besides, the colloidal stabilizing power entry in data set [2] is “comparable to that of the stable nonionic surfactants”.
As for “methoxy-(polyethylene glycol 5000)-N-(2-methyl-2-octadecyloxy-[1,3]dioxan-5-yl)amide [Compound E]”, in data set [1], the “sensitivity at acidic pH values” was “high sensitivity at acidic pH values” and the “stability at physiological pH” value is recorded as “relatively stable at physiological pH”. Further, the “start of aggregation of the nucleolipid particles after the acidification” value in data set [1] (pH 6, 37° C.) is given as “about 1 hour”.
As for “methoxy-(polyethylene glycol 5000)-N-{2-[17-(1,5-dimethylhexyl)-10,13-dimethyl-2,3,4,7,8,9,10,11,12,13,14,15,16,17-tetradecahydro-1H-cyclopenta[a]-phenanthren-3-yloxy]-[1,3]dioxolan-4-ylmethyl}amide [Compound D]”, the “increase of the gene transfer activity specific to the tumors relative to the lungs (factor)” value in data set [3] (M109 tumors versus lungs) is recorded as 40. Further, the “gene transfer in the tumors” value in data set [3] (M109 tumors, intravenous injection, 50 μg of DNA, 24 hours after injection, increasing quantity of pegoylated lipid) was “gene transfer does not appear to be affected in the tumors”. For the same molecule, the “transfection activity in the lungs” value in data set [3] (intravenous injection, 50 μg of DNA, tissues 24 hours after injection, increasing quantity of pegoylated lipid) was “the transfection activity is also inhibited in the lungs”. The results for the “aggregation of the particles after 4 hours” value in data set [4] (pegoylated lipid/DNA ratio of 0.5) and in data set [4] (pegoylated lipid/DNA ratio of 1) were “completely formed into aggregates” and “not at all or only slightly”, respectively. Also, in data set [4] (pH 5, t=0, regardless of the compound/DNA ratio), the “colloidal stability of the particles at time t=0” value was “the same stability”. Also, the colloidal stabilizing power result in data set [2] is reported as “comparable to that of the stable nonionic surfactants”.
